Measured values reported in PMC3593989 (Biochimica et biophysica acta, 2013).

Legend:
[1] = target: T1, acyl-CoA synthetase 4 (Acsl4) (Rattus norvegicus, UniProt O35547); format: biochemical
[2] = target: T1, acyl-CoA synthetase 4 (Acsl4); format: biochemical; remark: listed apart in the source

T1 sequence (O35547 whole entry): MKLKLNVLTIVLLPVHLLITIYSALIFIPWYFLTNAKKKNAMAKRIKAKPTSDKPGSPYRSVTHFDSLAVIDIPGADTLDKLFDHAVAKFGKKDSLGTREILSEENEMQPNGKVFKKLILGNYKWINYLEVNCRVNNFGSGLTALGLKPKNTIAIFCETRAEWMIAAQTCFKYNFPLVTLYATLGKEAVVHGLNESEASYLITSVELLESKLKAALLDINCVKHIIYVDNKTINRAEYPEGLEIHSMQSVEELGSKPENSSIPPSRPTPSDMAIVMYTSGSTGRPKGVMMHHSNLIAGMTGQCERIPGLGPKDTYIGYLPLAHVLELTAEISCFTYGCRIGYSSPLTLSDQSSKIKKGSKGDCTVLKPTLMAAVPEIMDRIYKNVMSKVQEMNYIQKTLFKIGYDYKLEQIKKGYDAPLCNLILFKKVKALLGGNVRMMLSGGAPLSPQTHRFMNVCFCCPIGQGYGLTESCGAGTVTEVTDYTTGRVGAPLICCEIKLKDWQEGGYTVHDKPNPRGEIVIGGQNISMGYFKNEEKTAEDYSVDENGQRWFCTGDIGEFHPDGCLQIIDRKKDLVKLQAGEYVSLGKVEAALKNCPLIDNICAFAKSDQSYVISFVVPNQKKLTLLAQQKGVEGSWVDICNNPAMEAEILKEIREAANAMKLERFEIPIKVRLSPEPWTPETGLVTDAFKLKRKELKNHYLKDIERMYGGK

Ki [1]	Compound	Km [2]
11.4 ± 1.28 mM	CCCC(C(=O)O)C(C)C (racemic) [PIA, 2-isopropylpentanoic acid]	
	CCCCC/C=C\C/C=C\C/C=C\C/C=C\CCCC(=O)O [AA, arachidonic acid]	4.12 ± 0.56 µM
